# Calls of active or inactive are those of the source.
# Key:
# [1] = target: Disintegrin and metalloproteinase domain-containing protein 17 (Homo sapiens, UniProt P78536); assay: exosite inhibitors of ADAM17, dose response, biochemical (AID 743260)
# [2] = ADAM10 protease inhibitors, dose response, selectivity assay for ADAM17 exosite inhibitor project, biochemical, FRET peptide substrate, recombinant human ADAM10 (AID 743259);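 note: ADAM10 enzyme cleaving a FRET peptide substrate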
# Beta-galactosidase = Beta-galactosidase (Escherichia coli, UniProt Q8VNN2); assay: Dose response counterscreen for EBI2 assay utilizing the enzyme, b-galactosidase.; type: functional
# Chain of Beta-galactosidase (Q8VNN2 whole entry): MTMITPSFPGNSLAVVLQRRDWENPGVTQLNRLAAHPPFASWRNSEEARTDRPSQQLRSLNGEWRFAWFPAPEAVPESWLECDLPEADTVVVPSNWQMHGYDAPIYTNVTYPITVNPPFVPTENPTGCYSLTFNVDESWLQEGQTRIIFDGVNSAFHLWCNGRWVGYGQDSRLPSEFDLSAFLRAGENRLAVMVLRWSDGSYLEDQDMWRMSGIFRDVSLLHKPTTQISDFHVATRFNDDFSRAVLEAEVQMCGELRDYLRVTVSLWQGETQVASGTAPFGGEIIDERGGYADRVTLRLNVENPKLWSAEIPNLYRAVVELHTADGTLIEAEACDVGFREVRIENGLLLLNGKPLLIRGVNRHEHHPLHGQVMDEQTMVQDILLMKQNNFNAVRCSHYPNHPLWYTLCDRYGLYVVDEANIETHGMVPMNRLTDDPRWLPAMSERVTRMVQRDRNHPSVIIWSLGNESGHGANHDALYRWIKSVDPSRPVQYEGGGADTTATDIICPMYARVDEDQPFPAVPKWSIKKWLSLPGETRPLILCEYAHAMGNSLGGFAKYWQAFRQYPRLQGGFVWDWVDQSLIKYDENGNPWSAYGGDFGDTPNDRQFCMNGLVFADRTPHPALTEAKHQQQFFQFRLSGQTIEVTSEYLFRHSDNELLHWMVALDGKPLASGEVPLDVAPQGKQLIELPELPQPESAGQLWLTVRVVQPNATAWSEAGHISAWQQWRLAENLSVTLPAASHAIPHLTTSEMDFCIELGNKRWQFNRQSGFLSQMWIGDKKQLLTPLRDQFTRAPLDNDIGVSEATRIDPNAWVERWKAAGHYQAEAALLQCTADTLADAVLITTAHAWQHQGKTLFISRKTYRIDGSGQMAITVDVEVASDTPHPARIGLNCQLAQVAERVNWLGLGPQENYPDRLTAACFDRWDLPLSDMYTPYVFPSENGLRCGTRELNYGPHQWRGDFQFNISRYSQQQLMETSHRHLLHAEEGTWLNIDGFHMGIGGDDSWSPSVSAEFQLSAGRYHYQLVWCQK
# [3] = A Cell Based Secondary Assay to Explore Cytotoxicity in THP-1 Cells of Compounds that Modulate Mycobacterium tuberculosis in Media Containing Glycerol versus Media without Glycerol (2).; type: functional
# [4] = Vero cell cytotoxicity, cytotoxicity control for M. tuberculosis inhibitor project, purified and synthesized samples, set 3 (AID 504684); type: functional
# [5] = Counterscreen for […] of the human trace amine associated receptor 1 (TAAR1): Fluorescence-based cell-based high throughput dose response assay to identify nonselective Ga16 agonists.; type: functional
# [6] = target: T1, Trace amine-associated receptor 1 (Homo sapiens, UniProt Q96RJ0); assay: Fluorescence-based cell-based high throughput dose response assay to identify antagonists of the human trace amine associated receptor 1 (TAAR1).; type: functional
# T1 sequence (Q96RJ0 whole entry): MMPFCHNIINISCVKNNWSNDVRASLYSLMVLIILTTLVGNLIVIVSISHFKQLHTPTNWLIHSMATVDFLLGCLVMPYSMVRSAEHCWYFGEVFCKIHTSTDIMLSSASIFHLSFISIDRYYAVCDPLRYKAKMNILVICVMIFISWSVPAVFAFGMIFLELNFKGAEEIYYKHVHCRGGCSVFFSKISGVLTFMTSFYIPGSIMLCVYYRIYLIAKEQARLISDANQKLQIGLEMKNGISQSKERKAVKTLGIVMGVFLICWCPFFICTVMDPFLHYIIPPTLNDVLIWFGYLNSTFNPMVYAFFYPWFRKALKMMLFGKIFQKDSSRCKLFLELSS
# [7] = Counterscreen for antagonists of the human trace amine associated receptor 1 (hTAAR1): Fluorescence-based cell-based high throughput dose response assay to identify nonselective Ga16 antagonists.; type: functional
# [8] = target: T1, Trace amine-associated receptor 1; assay: Counterscreen for antagonists of the human trace amine associated receptor 1 (hTAAR1): Fluorescence-based cell-based high throughput dose response assay to identify TAAR1 Agonists.; type: functional
# Albumin = Albumin (Bos taurus, UniProt P02769); assay: Counterscreen for inhibitors of T-cell receptor (TCR)-CD3 interaction: Fluorescence-based biochemical high throughput dose response assay to identify inhibitors of T-cell receptor (TCR)-CD3 interaction using a TAMRA-labeled BSA probe.; type: functional
# Chain of Albumin (P02769 whole entry): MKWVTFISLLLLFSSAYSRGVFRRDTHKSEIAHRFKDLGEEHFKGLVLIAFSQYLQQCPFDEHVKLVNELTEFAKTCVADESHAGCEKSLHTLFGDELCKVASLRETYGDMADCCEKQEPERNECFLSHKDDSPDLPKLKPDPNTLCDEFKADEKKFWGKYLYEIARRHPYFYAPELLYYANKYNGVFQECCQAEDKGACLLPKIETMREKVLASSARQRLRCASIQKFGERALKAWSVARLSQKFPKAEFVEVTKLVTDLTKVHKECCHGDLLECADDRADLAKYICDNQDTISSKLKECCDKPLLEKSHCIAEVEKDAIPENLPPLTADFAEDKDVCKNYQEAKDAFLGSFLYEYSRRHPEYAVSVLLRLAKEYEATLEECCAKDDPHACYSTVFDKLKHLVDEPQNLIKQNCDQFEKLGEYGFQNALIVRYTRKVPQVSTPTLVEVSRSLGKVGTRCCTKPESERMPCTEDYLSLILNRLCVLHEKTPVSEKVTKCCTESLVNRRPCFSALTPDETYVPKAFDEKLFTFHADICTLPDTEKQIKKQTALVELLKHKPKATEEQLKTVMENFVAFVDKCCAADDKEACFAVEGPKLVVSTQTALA
# [9] = human group III sPLA2 inhibitors, dose response, biochemical, QFRET, IC50 (AID 743457);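 note: green fluorescence rise as the enzyme cleaves BODIPY PC-A2 in liposomes; potency for inhibition of the enzyme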
# Hexokinase = target: T2, Hexokinase (Trypanosoma brucei, UniProt Q38C41); assay: Confirmation assay for inhibitors of Trypanosoma brucei hexokinase 1-Analogue-first series. [Related pubchem assays (depositor defined):AID1430, AID1632, AID2516, AID2560, AID2579, AID2600, AID449725, AID492951]; type: functional
# T2 sequence (Q38C41 whole entry): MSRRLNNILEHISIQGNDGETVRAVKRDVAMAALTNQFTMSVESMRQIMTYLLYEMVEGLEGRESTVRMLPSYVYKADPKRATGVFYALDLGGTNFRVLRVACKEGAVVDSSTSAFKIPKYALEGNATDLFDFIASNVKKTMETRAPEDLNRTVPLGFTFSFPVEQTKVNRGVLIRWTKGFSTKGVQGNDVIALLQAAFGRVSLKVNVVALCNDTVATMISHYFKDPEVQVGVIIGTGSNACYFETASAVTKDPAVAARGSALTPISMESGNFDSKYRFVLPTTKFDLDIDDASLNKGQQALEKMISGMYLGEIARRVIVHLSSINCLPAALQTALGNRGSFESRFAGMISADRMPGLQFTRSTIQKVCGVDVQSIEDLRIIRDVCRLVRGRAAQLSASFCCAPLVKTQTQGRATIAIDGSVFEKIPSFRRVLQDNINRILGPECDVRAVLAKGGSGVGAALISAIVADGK
# [10] = target: Glucose-6-phosphate 1-dehydrogenase (Homo sapiens, UniProt P11413); assay: human G6PD enzyme inhibitors, dose response, selectivity assay for P. falciparum G6PD inhibitor project, biochemical, fluorescence (AID 504792); type: functional
# Chain of Glucose-6-phosphate 1-dehydrogenase (P11413 whole entry): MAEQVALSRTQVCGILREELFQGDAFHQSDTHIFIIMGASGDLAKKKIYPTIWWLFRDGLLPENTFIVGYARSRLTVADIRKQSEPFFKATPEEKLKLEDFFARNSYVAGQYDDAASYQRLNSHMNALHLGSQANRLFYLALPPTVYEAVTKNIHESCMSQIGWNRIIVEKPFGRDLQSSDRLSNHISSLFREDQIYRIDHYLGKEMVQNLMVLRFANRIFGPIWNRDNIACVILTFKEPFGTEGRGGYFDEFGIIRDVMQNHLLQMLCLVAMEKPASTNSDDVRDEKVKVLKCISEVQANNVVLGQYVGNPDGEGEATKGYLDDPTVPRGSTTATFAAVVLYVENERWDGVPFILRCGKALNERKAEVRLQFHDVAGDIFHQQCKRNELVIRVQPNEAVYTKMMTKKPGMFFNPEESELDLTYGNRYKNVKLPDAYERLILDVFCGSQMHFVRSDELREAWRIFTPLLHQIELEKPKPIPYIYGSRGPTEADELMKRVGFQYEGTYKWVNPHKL
# [11] = target: SWI/SNF-related matrix-associated actin-dependent regulator of chromatin subfamily A member 2 (Homo sapiens, UniProt P51531); assay: Luminescence-based cell-based high throughput dose response assay to identify activators of the function of SWI/SNF related, matrix associated, actin dependent regulator of chromatin, subfamily a, member 2 (SMARCA2, BRM).; type: functional
# Chain of SWI/SNF-related matrix-associated actin-dependent regulator of chromatin subfamily A member 2 (P51531 whole entry): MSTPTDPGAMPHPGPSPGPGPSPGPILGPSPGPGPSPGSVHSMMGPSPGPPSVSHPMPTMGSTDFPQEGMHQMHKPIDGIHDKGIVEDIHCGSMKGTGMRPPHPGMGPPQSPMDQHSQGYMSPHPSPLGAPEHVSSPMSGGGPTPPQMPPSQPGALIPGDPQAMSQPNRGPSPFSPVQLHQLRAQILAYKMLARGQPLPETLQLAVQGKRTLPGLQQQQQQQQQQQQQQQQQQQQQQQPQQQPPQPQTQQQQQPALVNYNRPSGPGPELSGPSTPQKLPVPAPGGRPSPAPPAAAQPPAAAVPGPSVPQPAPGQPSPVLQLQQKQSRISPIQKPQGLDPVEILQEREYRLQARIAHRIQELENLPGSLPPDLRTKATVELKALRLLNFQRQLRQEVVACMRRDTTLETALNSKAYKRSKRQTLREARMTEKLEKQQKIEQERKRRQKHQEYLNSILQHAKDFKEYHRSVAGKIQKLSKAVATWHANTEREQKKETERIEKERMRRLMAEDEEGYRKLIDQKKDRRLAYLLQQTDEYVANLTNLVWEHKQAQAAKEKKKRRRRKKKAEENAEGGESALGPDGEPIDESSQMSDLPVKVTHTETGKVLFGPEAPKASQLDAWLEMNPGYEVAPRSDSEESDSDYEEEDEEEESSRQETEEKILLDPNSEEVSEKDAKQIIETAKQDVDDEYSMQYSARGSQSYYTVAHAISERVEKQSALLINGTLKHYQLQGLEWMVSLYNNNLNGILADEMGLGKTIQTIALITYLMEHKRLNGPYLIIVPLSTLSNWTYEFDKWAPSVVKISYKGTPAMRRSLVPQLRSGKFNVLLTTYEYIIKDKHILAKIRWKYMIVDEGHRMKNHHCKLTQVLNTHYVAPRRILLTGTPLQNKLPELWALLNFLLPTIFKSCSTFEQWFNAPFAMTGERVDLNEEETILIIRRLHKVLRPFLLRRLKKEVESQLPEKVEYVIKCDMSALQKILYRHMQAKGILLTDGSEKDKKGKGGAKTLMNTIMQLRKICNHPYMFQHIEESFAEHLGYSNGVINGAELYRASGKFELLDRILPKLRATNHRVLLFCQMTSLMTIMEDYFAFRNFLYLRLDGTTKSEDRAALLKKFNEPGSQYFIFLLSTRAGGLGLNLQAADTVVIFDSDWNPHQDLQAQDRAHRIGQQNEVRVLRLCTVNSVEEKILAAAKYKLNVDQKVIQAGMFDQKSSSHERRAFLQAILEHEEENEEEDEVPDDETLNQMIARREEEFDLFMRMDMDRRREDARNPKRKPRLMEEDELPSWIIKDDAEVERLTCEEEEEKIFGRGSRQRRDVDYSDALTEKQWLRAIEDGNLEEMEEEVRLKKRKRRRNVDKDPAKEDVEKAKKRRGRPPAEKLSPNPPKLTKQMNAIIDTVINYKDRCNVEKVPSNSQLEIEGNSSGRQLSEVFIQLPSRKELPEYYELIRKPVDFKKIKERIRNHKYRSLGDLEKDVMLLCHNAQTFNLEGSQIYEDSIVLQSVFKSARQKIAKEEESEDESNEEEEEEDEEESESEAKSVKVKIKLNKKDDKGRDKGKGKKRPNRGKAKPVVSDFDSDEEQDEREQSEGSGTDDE
# [12] = Counterscreen for activators of the function of SWI/SNF related, matrix associated, actin dependent regulator of chromatin, subfamily a, member 2 (SMARCA2, BRM): Luminescence-based cell-based high throughput dose response assay to identify non-selective compounds using the VP16 reporter assay.; type: functional
# [13] = inhibitors of HIV Env-driven cell fusion, dose response, cherry-pick (AID 652057); type: functional, cell-based
# [14] = CEM21 lymphoblast cell cytotoxicity, dose response, cytotoxicity control for viral fusion inhibitor project, CellTiter-Glo luminescence, cherry-picked (AID 652042); type: functional, cell-based;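 note: potency for signal decrease meaning cytotoxicity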
# [15] = ZM109 Env clade C HIV-1 fusion inhibitors, dose response, HeLa effector, CEM target cells, luciferase, cherry-pick (AID 652058); type: functional, cell-based
# [16] = off-target signal loss in HeLa-CEM21 co-culture – HeLa F-luc CTL cells, cherry-picked, counter-screen for HIV-1 Env fusion inhibitor project, dose response (AID 652040); type: functional, cell-based;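 note: potency for signal decrease marking cytotoxic or nonspecific inhibition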
# [17] = inhibitors of clade B AD8 Env fusion, dose response, cell-based, cherry-pick (AID 652062); type: functional;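 note: luciferase signal from cell-cell fusion driven by HIV-1 clade B AD8 Env; potency is for inhibitors of fusion seen as a drop in luminescence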
# Nonstructural protein 1 = Nonstructural protein 1 (Influenza A virus, UniProt Q194T2); type: functional, Influenza A virus (A/California/07/2009(H1N1))
# Vero = Vero cell cytotoxicity, cytotoxicity control for flavivirus capping enzyme inhibitors (AID 588742); type: functional; conditions: Chlorocebus sabaeus
# Genome polyprotein = Genome polyprotein (dengue virus type 2, UniProt P29990); assay: Dengue-2 NS5 methyltransferase inhibitors, primary screen, biochemical, confirmation dose response (AID 588689); type: functional
# [18] = target: T3, Mitochondrial peptide methionine sulfoxide reductase (Bos taurus, UniProt P54149); assay: Absorbance-based biochemical high throughput dose response assay for activators of Methionine sulfoxide reductase A (MsrA).; type: functional
# T3 sequence (P54149 whole entry): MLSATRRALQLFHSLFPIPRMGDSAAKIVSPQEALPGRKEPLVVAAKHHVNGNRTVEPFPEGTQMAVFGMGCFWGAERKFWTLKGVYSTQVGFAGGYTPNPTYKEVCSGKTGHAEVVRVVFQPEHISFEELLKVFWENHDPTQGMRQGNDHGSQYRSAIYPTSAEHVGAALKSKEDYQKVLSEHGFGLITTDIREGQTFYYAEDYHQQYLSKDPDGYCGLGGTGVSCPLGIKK
# [19] = target: T4, Rac GTPase-activating protein 1 (Homo sapiens, UniProt Q9H0H5); assay: MgcRacGAP GTPase-activating activity inhibitors, confirmation, biochemical, ADP Hunter fluorescence, primary and confirmatory (AID 624330); type: functional
# T4 sequence (Q9H0H5 whole entry): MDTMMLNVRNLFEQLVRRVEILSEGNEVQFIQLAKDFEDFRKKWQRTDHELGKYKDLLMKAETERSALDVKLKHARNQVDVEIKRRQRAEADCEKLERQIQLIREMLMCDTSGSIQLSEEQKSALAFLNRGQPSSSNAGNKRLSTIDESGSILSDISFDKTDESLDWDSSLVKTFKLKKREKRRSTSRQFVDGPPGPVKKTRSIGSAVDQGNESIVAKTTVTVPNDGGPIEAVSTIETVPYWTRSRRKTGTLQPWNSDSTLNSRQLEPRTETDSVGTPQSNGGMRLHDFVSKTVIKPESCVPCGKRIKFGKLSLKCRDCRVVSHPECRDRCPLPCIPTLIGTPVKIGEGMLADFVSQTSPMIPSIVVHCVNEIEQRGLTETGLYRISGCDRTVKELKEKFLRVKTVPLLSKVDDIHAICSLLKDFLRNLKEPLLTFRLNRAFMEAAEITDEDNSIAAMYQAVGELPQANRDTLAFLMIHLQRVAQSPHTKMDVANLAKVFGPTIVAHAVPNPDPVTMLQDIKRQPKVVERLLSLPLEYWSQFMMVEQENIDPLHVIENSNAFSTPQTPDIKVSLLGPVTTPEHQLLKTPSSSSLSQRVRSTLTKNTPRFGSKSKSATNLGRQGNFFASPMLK
# Caspase-6 = target: T5, Caspase-6 (Homo sapiens, UniProt P55212); assay: human caspase-6 inhibitors, dose response, biochemical, VEID-R110 fluorescence, cherry-pick (AID 720632)
# T5 sequence (P55212 whole entry): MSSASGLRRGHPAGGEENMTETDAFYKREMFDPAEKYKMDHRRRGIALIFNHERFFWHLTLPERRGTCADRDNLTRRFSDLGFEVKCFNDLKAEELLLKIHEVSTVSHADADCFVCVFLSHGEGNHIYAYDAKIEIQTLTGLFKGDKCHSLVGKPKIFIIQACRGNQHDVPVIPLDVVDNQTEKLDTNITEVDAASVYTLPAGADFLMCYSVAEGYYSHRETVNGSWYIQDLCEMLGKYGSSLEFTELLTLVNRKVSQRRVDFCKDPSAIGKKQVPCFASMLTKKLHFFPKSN
# [20] = target: Tyrosyl-DNA phosphodiesterase 2 (Homo sapiens, UniProt O95551); assay: human TDP2 enzyme inhibitors, dose response, biochemical, epi absorbance, IC50 (AID 743297)
# Chain of Tyrosyl-DNA phosphodiesterase 2 (O95551 whole entry): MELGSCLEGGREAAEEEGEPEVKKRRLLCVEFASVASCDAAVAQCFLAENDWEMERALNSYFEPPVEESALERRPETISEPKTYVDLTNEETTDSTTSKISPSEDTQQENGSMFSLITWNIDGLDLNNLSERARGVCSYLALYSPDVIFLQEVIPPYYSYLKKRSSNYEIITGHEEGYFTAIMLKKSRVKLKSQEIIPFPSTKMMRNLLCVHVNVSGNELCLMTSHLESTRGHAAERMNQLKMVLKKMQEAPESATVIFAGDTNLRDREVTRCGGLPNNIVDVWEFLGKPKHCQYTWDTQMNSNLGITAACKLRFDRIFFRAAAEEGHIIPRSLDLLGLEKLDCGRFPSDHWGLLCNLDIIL
# Interleukin-8 [21] = target: T6, Interleukin-8 (Homo sapiens, UniProt P10145); assay: Dose Response confirmation of uHTS small molecule hits for cystic fibrosis induced NFkb Inhibitors in a TNFa-induced IL8 counterscreen.; type: functional; conditions: read-out: IC50_Mean
# T6 sequence (P10145 whole entry): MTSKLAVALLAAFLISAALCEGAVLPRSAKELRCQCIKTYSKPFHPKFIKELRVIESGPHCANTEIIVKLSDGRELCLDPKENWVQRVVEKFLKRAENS
# Interleukin-8 [22] = target: T6, Interleukin-8; assay: Dose Response confirmation of uHTS small molecule hits for cystic fibrosis induced NFkb Inhibitors in a PAF-induced IL8 counterscreen.; type: functional; conditions: read-out: IC50_Mean
# Paired box protein Pax-8 = Paired box protein Pax-8 (Homo sapiens, UniProt Q06710); assay: inhibitors of PAX8-driven TPO luciferase reporter, dose response, RMG-I cells, cherry-pick (AID 687027); type: functional, cell-based;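 note: luciferase reporter driven by Pax8 target thyroperoxidase promoter measured by SteadyGlo luminescence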
# [23] = non-specific cell cytotoxicity, dose response, cytotoxicity control for PAX8 inhibitor project, plate reader, dry powder samples (AID 743021); type: functional, cell-based
# [24] = HEK293T cytotoxicity, dose response, cytotoxicity control for miR-122 modulator project, cell-based, inhibitor set, cherry-pick, set 2 (AID 720697); type: functional
# [25] = HEK293T cytotoxicity, dose response, cytotoxicity control for miR-122 modulator project, cell-based, activator set, cherry-pick (AID 720690); type: functional;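 note: HEK293T human cells scored for general mammalian cytotoxicity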
# Chain of Disintegrin and metalloproteinase domain-containing protein 17 (P78536 whole entry, the tested form may be a part): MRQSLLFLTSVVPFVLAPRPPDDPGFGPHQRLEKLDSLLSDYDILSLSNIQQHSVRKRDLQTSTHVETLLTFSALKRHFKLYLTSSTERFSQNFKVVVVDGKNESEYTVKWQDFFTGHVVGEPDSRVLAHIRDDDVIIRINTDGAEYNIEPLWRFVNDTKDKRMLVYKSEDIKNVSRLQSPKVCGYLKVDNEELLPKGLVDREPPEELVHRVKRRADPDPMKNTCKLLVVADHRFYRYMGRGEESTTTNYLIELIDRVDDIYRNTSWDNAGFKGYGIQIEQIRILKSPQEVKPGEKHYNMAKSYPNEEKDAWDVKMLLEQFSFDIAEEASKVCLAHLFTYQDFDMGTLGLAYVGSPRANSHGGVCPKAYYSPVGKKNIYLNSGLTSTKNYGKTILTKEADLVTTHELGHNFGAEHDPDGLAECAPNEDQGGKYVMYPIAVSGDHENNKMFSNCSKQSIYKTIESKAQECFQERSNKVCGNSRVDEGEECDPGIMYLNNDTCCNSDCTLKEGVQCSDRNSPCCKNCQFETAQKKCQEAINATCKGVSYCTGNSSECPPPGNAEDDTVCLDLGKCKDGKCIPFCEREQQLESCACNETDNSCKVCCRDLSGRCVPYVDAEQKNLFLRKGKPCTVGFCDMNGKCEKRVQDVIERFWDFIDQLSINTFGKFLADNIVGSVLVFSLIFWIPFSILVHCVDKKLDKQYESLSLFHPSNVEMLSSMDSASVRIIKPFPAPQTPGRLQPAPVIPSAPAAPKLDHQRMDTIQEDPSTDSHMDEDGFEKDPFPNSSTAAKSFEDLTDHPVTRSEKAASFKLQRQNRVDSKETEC
smiles,measurement,setting,value
COc1ccc(OC)c(-c2csc(NC(=O)COC(=O)C3(C)CC3(Cl)Cl)n2)c1 (centres undefined),IC50,[1],> 69.5 µM (inactive)
same,IC50,[2],13.1 µM (inactive)
CCOC(=O)C1=C(Nc2ccc(Cl)cc2)S/C(=C\c2ccccn2)C1=O,IC50,Beta-galactosidase,> 80 µM (inactive)
O=C(/C=C/c1ccccc1)N1CCN(CCN2C(=O)c3cccc4cccc(c34)C2=O)CC1,CC50,[3],60.2 µM (active)
same,CC50,[4],> 100 µM (active)
same,IC50,Beta-galactosidase,> 80 µM (inactive)
COc1ccc2oc(C(=O)OCC(=O)NCc3ccccc3OC)c(C)c2c1,EC50,[5],> 29.9 µM (inactive)
same,IC50,[6],6.65 µM (active)
same,IC50,[7],> 29.9 µM (inactive)
same,EC50,[8],7.16 µM (active)
O=C(NN=Cc1sc(=O)[nH]c1-[n+]1ccc2ccccc2c1)c1ccccc1[O-],IC50,Albumin,> 94.1 µM (inactive)
NC(=O)CCC1NC(=S)N(Cc2ccccc2)C1=O (centres undefined),IC50,Albumin,> 94.1 µM (inactive)
O=C(NNC(=S)Nc1ccccc1Cl)c1ccccc1Cl,IC50,[9],> 122 µM (inactive)
Cn1sc2ccccc2c1=O,IC50,Hexokinase,> 25 µM (inactive)
same,IC50,[10],37.3 µM (inactive)
same,EC50,[11],> 91.2 µM (inactive)
same,EC50,[12],> 91.2 µM (inactive)
OCCCn1c(CCNc2nc(-c3ccc(F)cc3)cs2)nc2cc(C(F)(F)F)ccc21,AC50,[13],8.76 µM (active)
same,AC50,[14],51.5 µM (active)
same,AC50,[15],5.8 µM (active)
same,AC50,[16],43.1 µM (active)
same,AC50,[17],16 µM (active)
C[n+]1c(-c2ccccc2)cc2c(=Cc3ccc([N+](=O)[O-])cc3)c3ccccc3n21,IC50,[10],> 80 µM (inactive)
same,IC50,Nonstructural protein 1,9.36 µM (active)
same,CC50,Vero,34.8 µM (active)
same,IC50,Genome polyprotein,14.2 µM (active)
same,EC50,[18],> 104 µM (inactive)
same,IC50,[19],31.5 µM (active)
same,AC50,Caspase-6,0.309 µM (active)
same,IC50,[20],> 128 µM (inactive)
C=C1C(=O)[C@]23C[C@H]1CCC2[C@@]1(C)C(C[C@@H]3O)[C@](C)(C(=O)O)CC[C@@H]1O (some centres undefined),IC50,Interleukin-8 [21],39.7 µM (inactive)
same,IC50,Interleukin-8 [22],0.817 µM (active)
same,EC50,[11],> 10.1 µM (inactive)
same,EC50,[12],> 91.3 µM (inactive)
Cc1cccc(C(C#N)c2nc3ccccc3nc2C(F)(F)F)c1 (centres undefined),EC50,[5],> 29.9 µM (inactive)
same,IC50,[6],1.58 µM (active)
same,IC50,[7],> 29.9 µM (inactive)
same,EC50,[8],> 29.9 µM (inactive)
Brc1ccc2nc(-c3ccc(CN4CCC(c5nc6ccccc6[nH]5)CC4)cc3)c(-c3ccccc3)nc2c1,AC50,Paired box protein Pax-8,9.03 µM (active)
same,AC50,[23],37.8 µM (active)
CN1C(=O)c2cc(NC(=O)c3ccc(C(F)(F)F)cc3)ccc2OC[C@H]2O[C@H](CC(=O)NC3Cc4ccccc4C3)CC[C@@H]21,AC50,[24],0.324 µM (active)
same,AC50,[25],0.335 µM (active)
Cc1ccc(OCCOCCOc2ccc(Br)cc2/C=N\NC(=O)c2ccncc2)cc1,IC50,[1],> 69.5 µM (inactive)
same,IC50,[2],> 69.5 µM (inactive)

# Source: ChEMBL document CHEMBL1201862, “PubChem BioAssay data set” (2004)
